According to patent US9173891B2, “Treatment of ovarian cancer using an anticancer agent conjugated to an angiopep-2 analog” (Angiochem, Inc., priority 2009, dated 2015):

Key:
[1] = tested on: metastatic ovarian cancer; test: Prior standard chemotherapy of the ovarian cancer patient before the ANG1005 trial; format: in vivo, human; conditions: prior therapy 2007-2008
Method: The patient was originally diagnosed in November 2006 with ovarian cancer. […] From February 2008 to March 2008, the patient received a combination of Gemzar® (gemcitabine) and […]® (topotecan). The patient was again given a combination of Taxotere® (docetaxel) and carboplatin from March 2008 until July 2008. In November 2008, the patient was administered Doxil® (doxorubicin).

LRP receptor = target: T1, LRP receptor (Rattus norvegicus, UniProt G3V928); test: In situ rat brain perfusion, uptake inhibition by LRP ligands or Angiopep peptides; format: in vivo; conditions: for brain uptake of an Angiopep conjugate: FIG. 6B
T1 construct: from tissue; host or cells: brain of male Sprague Dawley rats (in situ perfusion)
T1 sequence (G3V928 20-4545): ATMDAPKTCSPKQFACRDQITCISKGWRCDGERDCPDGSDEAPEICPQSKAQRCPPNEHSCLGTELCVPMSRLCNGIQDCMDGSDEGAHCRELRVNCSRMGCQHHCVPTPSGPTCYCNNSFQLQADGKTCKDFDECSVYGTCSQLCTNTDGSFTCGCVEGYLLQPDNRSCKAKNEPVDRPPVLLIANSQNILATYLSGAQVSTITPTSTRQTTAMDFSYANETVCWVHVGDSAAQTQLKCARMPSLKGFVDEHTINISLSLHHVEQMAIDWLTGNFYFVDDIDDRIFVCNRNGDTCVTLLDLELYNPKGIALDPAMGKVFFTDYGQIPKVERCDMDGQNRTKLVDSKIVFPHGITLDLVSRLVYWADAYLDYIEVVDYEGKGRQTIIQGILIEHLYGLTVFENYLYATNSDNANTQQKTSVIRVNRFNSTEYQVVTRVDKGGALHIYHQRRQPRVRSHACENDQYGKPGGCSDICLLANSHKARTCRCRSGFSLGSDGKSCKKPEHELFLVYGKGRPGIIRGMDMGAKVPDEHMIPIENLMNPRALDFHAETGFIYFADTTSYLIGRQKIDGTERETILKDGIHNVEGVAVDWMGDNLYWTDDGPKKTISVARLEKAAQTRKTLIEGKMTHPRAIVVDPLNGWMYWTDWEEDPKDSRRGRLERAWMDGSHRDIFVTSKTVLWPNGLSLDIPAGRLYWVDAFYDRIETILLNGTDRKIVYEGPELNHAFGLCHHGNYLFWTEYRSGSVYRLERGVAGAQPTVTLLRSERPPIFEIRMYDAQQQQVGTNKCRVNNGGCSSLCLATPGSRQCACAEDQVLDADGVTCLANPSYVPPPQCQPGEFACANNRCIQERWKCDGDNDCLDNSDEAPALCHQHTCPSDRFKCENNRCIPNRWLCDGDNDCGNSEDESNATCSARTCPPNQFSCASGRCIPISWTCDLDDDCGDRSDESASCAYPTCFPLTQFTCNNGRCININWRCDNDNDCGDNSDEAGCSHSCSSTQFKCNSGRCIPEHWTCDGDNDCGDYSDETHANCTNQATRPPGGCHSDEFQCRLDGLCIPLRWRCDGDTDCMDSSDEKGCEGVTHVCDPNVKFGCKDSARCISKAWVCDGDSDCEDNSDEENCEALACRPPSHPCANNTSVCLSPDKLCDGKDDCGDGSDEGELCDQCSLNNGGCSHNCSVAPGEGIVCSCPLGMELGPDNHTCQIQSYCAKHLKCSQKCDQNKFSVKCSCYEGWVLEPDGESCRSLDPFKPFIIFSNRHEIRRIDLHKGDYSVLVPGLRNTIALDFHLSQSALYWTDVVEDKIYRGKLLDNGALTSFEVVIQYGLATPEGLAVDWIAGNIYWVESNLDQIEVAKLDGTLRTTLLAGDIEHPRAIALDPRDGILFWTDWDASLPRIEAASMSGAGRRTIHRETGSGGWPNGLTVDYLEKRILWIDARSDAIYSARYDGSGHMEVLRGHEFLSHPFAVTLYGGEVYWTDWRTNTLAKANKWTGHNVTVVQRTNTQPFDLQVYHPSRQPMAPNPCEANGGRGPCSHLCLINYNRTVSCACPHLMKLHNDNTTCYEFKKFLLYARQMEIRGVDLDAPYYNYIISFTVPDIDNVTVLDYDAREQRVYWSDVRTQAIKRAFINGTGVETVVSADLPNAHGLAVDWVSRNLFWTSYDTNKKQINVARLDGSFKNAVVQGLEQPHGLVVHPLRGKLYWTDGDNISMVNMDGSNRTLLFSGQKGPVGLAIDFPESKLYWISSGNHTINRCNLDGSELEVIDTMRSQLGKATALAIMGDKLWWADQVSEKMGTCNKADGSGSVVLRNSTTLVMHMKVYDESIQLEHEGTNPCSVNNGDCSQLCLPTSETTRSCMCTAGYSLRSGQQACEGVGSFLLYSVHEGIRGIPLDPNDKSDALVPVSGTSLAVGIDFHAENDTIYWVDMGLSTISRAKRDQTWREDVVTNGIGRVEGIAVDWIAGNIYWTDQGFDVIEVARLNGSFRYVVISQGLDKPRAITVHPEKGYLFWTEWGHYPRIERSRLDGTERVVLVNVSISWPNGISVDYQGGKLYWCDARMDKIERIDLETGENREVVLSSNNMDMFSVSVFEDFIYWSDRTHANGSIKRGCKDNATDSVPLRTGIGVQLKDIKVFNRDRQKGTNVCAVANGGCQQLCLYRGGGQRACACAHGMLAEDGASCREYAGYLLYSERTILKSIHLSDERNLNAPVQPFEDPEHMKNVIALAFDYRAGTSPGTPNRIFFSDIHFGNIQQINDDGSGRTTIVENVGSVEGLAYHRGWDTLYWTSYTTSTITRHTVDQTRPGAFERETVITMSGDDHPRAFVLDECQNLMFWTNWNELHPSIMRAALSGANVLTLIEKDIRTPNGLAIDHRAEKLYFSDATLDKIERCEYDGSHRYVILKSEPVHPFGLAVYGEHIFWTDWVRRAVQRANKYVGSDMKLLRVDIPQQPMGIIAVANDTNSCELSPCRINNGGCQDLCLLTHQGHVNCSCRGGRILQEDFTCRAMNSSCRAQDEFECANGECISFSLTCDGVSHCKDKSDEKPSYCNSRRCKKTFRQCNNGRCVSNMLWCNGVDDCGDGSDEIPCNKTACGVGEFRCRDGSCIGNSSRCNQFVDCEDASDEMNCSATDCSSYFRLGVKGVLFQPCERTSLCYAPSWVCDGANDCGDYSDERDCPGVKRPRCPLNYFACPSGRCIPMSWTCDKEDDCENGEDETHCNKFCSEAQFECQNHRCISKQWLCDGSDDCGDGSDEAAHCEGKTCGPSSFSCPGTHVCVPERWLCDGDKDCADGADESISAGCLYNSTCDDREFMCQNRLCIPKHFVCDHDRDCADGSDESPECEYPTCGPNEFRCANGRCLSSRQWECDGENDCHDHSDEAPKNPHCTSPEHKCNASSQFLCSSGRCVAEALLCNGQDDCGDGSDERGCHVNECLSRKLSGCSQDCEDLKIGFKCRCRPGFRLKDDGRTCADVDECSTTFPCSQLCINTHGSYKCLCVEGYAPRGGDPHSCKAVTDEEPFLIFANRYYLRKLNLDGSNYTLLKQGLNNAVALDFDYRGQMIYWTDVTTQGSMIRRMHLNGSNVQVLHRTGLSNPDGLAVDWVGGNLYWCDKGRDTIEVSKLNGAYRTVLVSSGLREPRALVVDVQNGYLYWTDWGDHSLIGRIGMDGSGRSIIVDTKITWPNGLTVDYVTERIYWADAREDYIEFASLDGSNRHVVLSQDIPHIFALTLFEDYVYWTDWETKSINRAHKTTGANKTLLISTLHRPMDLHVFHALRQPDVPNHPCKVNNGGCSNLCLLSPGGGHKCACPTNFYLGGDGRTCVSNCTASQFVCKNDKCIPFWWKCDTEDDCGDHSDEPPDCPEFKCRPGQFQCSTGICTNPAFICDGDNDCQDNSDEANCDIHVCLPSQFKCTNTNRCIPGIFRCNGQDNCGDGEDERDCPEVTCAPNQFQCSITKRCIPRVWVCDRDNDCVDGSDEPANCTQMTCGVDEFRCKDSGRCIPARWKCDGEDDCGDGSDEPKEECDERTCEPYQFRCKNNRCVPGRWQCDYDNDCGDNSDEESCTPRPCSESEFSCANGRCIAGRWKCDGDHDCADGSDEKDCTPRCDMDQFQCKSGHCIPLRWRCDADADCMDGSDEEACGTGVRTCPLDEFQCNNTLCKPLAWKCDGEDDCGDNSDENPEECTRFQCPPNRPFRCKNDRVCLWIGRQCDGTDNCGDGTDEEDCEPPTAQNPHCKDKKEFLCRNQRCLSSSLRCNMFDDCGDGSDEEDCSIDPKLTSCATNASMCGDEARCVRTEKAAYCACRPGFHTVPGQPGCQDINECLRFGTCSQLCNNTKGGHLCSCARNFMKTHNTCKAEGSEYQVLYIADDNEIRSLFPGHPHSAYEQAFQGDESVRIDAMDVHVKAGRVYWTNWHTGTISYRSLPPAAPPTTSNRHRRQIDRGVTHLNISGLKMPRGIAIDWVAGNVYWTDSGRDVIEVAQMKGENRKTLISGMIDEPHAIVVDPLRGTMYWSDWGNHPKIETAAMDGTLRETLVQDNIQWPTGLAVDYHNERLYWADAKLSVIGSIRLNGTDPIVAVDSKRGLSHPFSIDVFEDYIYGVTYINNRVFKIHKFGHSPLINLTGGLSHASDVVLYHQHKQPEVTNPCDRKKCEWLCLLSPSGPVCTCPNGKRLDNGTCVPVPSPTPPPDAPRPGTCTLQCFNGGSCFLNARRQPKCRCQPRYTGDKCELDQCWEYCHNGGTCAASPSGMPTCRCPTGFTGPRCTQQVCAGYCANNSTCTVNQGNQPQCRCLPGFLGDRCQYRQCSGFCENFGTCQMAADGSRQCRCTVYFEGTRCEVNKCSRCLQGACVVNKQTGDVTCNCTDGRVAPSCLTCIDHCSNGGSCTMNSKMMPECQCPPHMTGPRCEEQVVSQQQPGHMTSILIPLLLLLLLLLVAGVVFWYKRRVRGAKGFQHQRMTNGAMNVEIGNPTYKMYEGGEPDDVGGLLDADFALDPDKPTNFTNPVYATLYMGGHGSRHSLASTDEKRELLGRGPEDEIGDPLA
Text: The methods of the invention may be especially useful in treating cancers having cells that express low density lipoprotein-related protein (LRP) receptor. The LRP receptor is expressed on the surface of cells, and is capable of binding to various substrates including aprotinin, β-amyloid, tissue plasminogen activator (tPA), melano-transferrin, and receptor associated peptide (RAP). The peptides described herein were designed based on the consensus kunitz-domain sequences that act as LRP receptor ligands (see, e.g., PCT Publication No. WO 2004/060403). Uptake of the conjugates including Angiopep-1 or Angiopep-2 is inhibited by LRP ligands, thus indicating involvement of LRP in this process. […] Angiopep-2 (10 or 100 μM) is similarly able to reduce uptake of the conjugates into cells (FIGS. 6A and 6B).
The results described in FIGS. 4A and 4B were obtained using an in situ rat brain perfusion. Male Sprague Dawley rats were anesthetized with […] i.p., of sodium pentobarbital (Nembutal, Abbott Laboratories, North Chicago, Ill., USA). The neck region was shaved and the common carotid artery was exposed. The external carotid artery was ligated, but the pterygopalatine artery was not occluded. A PE-60 catheter filled with heparinized 0.9% saline (100 IU/mL) was inserted into the common carotid artery upon ligation. A heating pad linked to YSI feedback controller device (Yellow Springs Instruments, Yellow Springs, Ohio, USA) was used to maintain the rat body temperature at 37° C. The PE-60 catheter was attached to a glass syringe filled with the tracer; with or without inhibitors, in a bicarbonate-buffered physiological saline (Smith Q R., Pharm Biotechnol 8:285-307, 1996) mounted on a Harvard infusion pump (Harvard Biosciences, South Natick, Mass., USA) maintained at 37° C. Dual-labeled experiments were performed for studying the brain uptake. [^14C]Sucrose was used as a vascular volume marker. Perfusion was started upon severing the heart to stop blood flow to the brain. […] The samples were weighed and counted using the gamma counter (Cobra 600) to determine the ^125I labeled drug. […]

Compound | course of patient's cancer after receiving the agent [1] | also measured
N.N.O=C([O-])C1(C(=O)[O-])CCC1.[Pt+2] [carboplatin] | continued to progress | 
CC(=O)O[C@@]12CO[C@@H]1C[C@H](O)[C@@]1(C)C(=O)[C@H](O)C3=C(C)[C@@H](OC(=O)[C@H](O)[C@@H](NC(=O)OC(C)(C)C)c4ccccc4)C[C@@](O)([C@@H](OC(=O)c4ccccc4)[C@H]21)C3(C)C [docetaxel] | continued to progress | 
COc1cccc2c1C(=O)c1c(O)c3c(c(O)c1C2=O)C[C@@](O)(C(=O)CO)C[C@@H]3O[C@H]1C[C@H](N)[C@H](O)[C@H](C)O1 [doxorubicin] | continued to progress | 
Nc1ccn([C@@H]2O[C@H](CO)[C@@H](O)C2(F)F)c(=O)n1 [gemcitabine] | continued to progress | 
CC[C@@]1(O)C(=O)OCc2c1cc1n(c2=O)Cc2cc3c(CN(C)C)c(O)ccc3nc2-1 [topotecan] | continued to progress | 
Angiopep-2: peptide vector, sequence TFFYGGSRGKRNNFKTEEY |  | uptake of the conjugates into cells (LRP receptor; Angiopep-2 10 or 100 μM, FIG. 6A): reduce uptake
RAP: LRP ligand, receptor associated protein (RAP) |  | brain uptake of an Angiopep conjugate (LRP receptor; RAP 200 nM co-perfused): reducing brain uptake
aprotinin |  | brain uptake of an Angiopep conjugate (LRP receptor; aprotinin 10 μM co-perfused): reducing brain uptake
